Key:
[1] = Time required to completely dissolve Vitamin C powder in water; assay type: physicochemical
Source text: 1. Determine the amount of time required to completely dissolve Vitamin C powder with 12 to 15 cc of water. In general, it requires 45 to 120 seconds to completely dissolve 1% to 15% Vitamin C powder in water.

[2] = Decay of vitamin stored in liquid solution (loss of initial activity); details: dissolved in a liquid solution, stored in a closed and dark container, after 60 days

Compound | Time to completely dissolve ([1]; 1% to 15% Vitamin C powder in water) | Time to completely dissolve ([1]; 1 wt % Vitamin C, 151 mg in 15 g water) | Time to completely dissolve ([1]; 5 wt % Vitamin C, 526 mg in 12 g water) | Time to completely dissolve ([1]; 10 wt % Vitamin C, 1107 mg in 12 g water) | Time to completely dissolve ([1]; 15 wt % Vitamin C, 1765 mg in 12 g water) | Time to completely dissolve ([1]; 20 wt % Vitamin C, 2496 mg in 12 g water) | loss of initial activity [2]
O=C1O[C@H]([C@@H](O)CO)C(O)=C1O [Vitamin C, L-ascorbic acid] | 45 to 120 s | 60 s | 45 s | 75 s | 120 s | 210 s | ~72%
tocopherol [Vitamin E] |  |  |  |  |  |  | ~35%
